A short description of the data set: Dynamic vapor sorption (DVS) analysis. It is filed as physicochemical. Particulars: between about 2 to about 92% relative humidity (RH); at 25° C. The method, then:
Dynamic vapor sorption (DVS) analysis was performed using a DVS Intrinsic 1. The sample (25 mg) was loaded into a sample pan, suspended from a microbalance and exposed to a humidified stream of nitrogen gas. The sample was held for a minimum of 5 min at each level and only progressed to the next humidity level if there was <0.002% change in weight between measurements (interval: 60 seconds) or 240 min had elapsed.

Each structure is given as a SMILES string.

In the case of `Cn1nccc1-c1cc2c(n3cnnc13)NCc1c(F)ccc3c1C(CO3)CO2` (stereo in doubt) [Form A, (S)-12-fluoro-4-(1-methyl-1H-pyrazol-5-yl)-7a,8,13,14-tetrahydro-7H-[1,2,4]triazolo[4′,3′:1,6]pyrido[3,2-b]benzofuro[4,3-fg][1,4]oxazonine], the “DVS mass change expressed as equivalents of water” value was “about 1.48 eq. water” and the “dynamic vapor sorption (DVS) profile, mass change” value is “about 6.34 wt. %”.
Consider `Cn1nccc1-c1cc2c(n3cnnc13)NCc1c(F)ccc3c1C(CO3)CO2` (stereo in doubt) [Form U, (S)-12-fluoro-4-(1-methyl-1H-pyrazol-5-yl)-7a,8,13,14-tetrahydro-7H-[1,2,4]triazolo[4′,3′:1,6]pyrido[3,2-b]benzofuro[4,3-fg][1,4]oxazonine], for which the “dynamic vapor sorption (DVS) profile, mass change” value is on record as “about 0.38 wt. %”.
Same read-out and setting: the value for `Cn1nccc1-c1cc2c(n3cnnc13)NCc1c(F)ccc3c1C(CO3)CO2` (stereo in doubt) [Form E, (S)-12-fluoro-4-(1-methyl-1H-pyrazol-5-yl)-7a,8,13,14-tetrahydro-7H-[1,2,4]triazolo[4′,3′:1,6]pyrido[3,2-b]benzofuro[4,3-fg][1,4]oxazonine] was “about 0.23 wt. %”.

These data come from patent US20240199645A1, “POLYMORPHIC FORMS OF (S)-12-FLUORO-4-(1-METHYL-1H-PYRAZOL-5-YL)-7A,8,13,14-TETRAHYDRO-7H-[1,2,4]TRIAZOLO[4',3':1,6]PYRIDO[3,2-B]BENZOFURO[4,3-FG][1,4]OXAZONINE” (Fulcrum Therapeutics, Inc., priority 2021, published 2024).
